Values quoted from earlier work, collected in PMC4862687, “GPCRs Direct Germline Development and Somatic Gonad Function in Planarians” (PLoS Biology, 2016).

Experiments:
GnRH neuronal output = system: GnRH neuronal output; parameters: method as in PMID 3131748, PMID 24221756; conditions: mammals and teleosts; ref [61],[62]; cited from earlier work
secretion of LH and GnRH = conditions: injection of NPY into sex steroid-primed ovariectomized rats; ref [53],[54]; cited from earlier work
Description: (§1) NPF expression in Drosophila brain is sexually dimorphic and is believed to be centrally involved in mating behavior [52]. Also, NPF-deficient flies show a decrease in egg laying capacity, but the same effect is not observed in NPFR-1-deficient flies. […] Conversely, in intact rats, NPY has an inhibitory effect ...

pituitary-gonadal axis = conditions: intact rats; ref [55]; cited from earlier work
Description: as §1

Substance: neuropeptide Y [NPY]
- GnRH neuronal output (GnRH neuronal output): positively modulates GnRH neuronal output
- LH and GnRH secretion (secretion of LH and GnRH): induces secretion of LH and GnRH
- effect on reproduction / pituitary-gonadal axis (pituitary-gonadal axis): inhibitory effect on reproduction by suppressing the pituitary-gonadal axis
